The record followed here is article PMC8286619 (BMC Pharmacology & Toxicology, 2021).

The target of the experiment is T1, xanthine oxidase (XO) (Bos taurus, UniProt P80457).
T1 construct: gene XDH
The experiment can be described thus: biolayer interferometry, biotinylated XO on SA sensor (also activates the purified enzyme, EC50 […]). The experiment is classed as binding.

T1 sequence (P80457 2-1332): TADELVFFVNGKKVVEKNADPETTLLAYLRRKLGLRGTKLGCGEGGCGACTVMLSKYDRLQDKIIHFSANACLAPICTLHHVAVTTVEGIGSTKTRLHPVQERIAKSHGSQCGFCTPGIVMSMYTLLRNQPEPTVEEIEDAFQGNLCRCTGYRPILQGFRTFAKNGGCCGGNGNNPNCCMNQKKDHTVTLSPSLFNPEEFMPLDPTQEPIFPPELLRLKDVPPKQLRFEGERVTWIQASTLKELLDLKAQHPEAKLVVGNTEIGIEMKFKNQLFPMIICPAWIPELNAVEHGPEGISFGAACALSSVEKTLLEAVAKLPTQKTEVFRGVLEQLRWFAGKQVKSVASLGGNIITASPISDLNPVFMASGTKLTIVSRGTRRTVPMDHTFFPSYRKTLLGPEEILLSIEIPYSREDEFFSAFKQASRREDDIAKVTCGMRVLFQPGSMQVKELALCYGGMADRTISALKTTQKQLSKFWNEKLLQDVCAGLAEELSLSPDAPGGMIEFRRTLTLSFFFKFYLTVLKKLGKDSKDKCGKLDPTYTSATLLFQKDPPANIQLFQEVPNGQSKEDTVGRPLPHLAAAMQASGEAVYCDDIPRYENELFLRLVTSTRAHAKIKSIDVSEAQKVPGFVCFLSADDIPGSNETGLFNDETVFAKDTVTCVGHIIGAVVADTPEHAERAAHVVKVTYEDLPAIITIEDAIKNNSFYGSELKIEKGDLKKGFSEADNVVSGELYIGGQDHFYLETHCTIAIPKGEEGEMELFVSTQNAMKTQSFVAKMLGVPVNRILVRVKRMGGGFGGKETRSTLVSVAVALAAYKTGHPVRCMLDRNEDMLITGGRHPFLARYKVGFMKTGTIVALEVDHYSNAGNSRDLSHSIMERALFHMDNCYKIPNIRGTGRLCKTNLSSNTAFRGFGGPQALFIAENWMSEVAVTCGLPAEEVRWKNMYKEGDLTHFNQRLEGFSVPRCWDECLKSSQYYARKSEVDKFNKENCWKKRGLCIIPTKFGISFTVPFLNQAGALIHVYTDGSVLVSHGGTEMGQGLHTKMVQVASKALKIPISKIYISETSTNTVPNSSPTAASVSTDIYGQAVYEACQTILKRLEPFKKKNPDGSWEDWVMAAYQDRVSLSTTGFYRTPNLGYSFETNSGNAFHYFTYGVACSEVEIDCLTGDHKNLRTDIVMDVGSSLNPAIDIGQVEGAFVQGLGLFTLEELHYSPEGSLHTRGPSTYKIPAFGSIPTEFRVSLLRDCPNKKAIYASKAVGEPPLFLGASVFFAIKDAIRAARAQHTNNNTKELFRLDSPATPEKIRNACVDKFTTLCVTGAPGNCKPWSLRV

As a reminder, the Kd is the concentration at which binding is half-saturated. `CC1=CC(=O)c2c(O)cccc2C1=O` [PLB, Plumbagin]: binding was characterised by a dissociation constant (Kd) of 499 nM.
